Source: ChEMBL document CHEMBL4334492, “Nectriatide, a Potentiator of Amphotericin B Activity from Nectriaceae sp. BF-0114” (J Nat Prod, 2019)
One block for each compound: values may come before it. The source made the active and inactive calls. No cut-off for these calls is given here. Non-standard residues stand in square brackets, D forms with d. Residues, ends and D or L forms follow the SMILES beside them. *: point of attachment. NMeY = CN[C@@H](Cc1ccc(O)cc1)C(=O)O; 2Abz = Nc1ccccc1C(=O)O; tBu = CC(C)(C)*

Experiments:
Candida albicans [1] = assay: Potentiation of amphotericin-induced antifungal activity against Candida albicans ATCC 90029 assessed as fold reduction in amphotericin MIC at 32 ug/ml after 24 hrs by broth microdilution method relative to amphotericin MIC alone; assay type: functional
Candida albicans [2] = assay: Potentiation of amphotericin-induced antifungal activity against Candida albicans ATCC 90029 assessed as amphotericin MIC at 32 ug/ml after 24 hrs by broth microdilution method (reference value: 0.5 ug/ml); assay type: functional; conditions: ATCC 90029, 24 h
Candida albicans [3] = assay: Potentiation of amphotericin-induced antifungal activity against Candida albicans ATCC 90029 assessed as amphotericin MIC at 8 ug/ml after 24 hrs by broth microdilution method (reference value: 0.5 ug/ml); assay type: functional; conditions: ATCC 90029, 24 h
Candida albicans [4] = assay: Potentiation of amphotericin-induced antifungal activity against Candida albicans ATCC 90029 assessed as fold reduction in amphotericin MIC at 8 ug/ml after 24 hrs by broth microdilution method relative to amphotericin MIC alone; assay type: functional
Candida albicans [5] = assay: Potentiation of amphotericin-induced antifungal activity against Candida albicans ATCC 90029 assessed as amphotericin MIC at 16 ug/ml after 24 hrs by broth microdilution method (reference value: 0.5 ug/ml); assay type: functional; conditions: ATCC 90029, 24 h
Candida albicans [6] = assay: Potentiation of amphotericin-induced antifungal activity against Candida albicans ATCC 90029 assessed as fold reduction in amphotericin MIC at 16 ug/ml after 24 hrs by broth microdilution method relative to amphotericin MIC alone; assay type: functional
Saccharomyces cerevisiae [7] = assay: Potentiation of amphotericin-induced antifungal activity against Saccharomyces cerevisiae S288c assessed as amphotericin MIC at 2 ug/ml after 24 hrs by broth microdilution assay (reference value: 0.5 ug/ml); assay type: functional
Saccharomyces cerevisiae [8] = assay: Potentiation of amphotericin-induced antifungal activity against Saccharomyces cerevisiae S288c assessed as amphotericin MIC at 16 ug/ml after 24 hrs by broth microdilution assay (reference value: 0.5 ug/ml); assay type: functional
Aspergillus niger [9] = assay: Potentiation of amphotericin-induced antifungal activity against Aspergillus niger ATCC 6275 assessed as fold reduction in amphotericin MIC at 32 ug/ml after 48 hrs by broth microdilution method relative to amphotericin MIC alone; assay type: functional
Jurkat = assay: Cytotoxicity against human Jurkat cells at 128 ug/ml after 24 hrs by MTT assay; assay type: cell-based
Rhizopus arrhizus [10] = assay: Potentiation of amphotericin-induced antifungal activity against Rhizopus oryzae NBRC4705 assessed as amphotericin MIC after 24 hrs by broth microdilution assay (reference value: 1 ug/ml); assay type: functional, organism-based
Rhizopus arrhizus [11] = assay: Potentiation of amphotericin-induced antifungal activity against Rhizopus oryzae NBRC4705 assessed as fold reduction in amphotericin MIC at 16 ug/ml after 24 hrs by broth microdilution assay relative to amphotericin MIC alone; assay type: functional
Candida albicans [12] = assay: Potentiation of miconazole-induced antifungal activity against Candida albicans ATCC 90029 at 64 ug/ml after 24 hrs by broth microdilution assay; assay type: functional, organism-based
HEK293 [13] = assay: Cytotoxicity against human HEK293 cells assessed as reduction in cell viability after 24 hrs by MTT assay; assay type: cell-based; conditions: HEK293, 24 h
Saccharomyces cerevisiae [14] = assay: Potentiation of amphotericin-induced antifungal activity against Saccharomyces cerevisiae S288c assessed as amphotericin MIC after 24 hrs by broth microdilution assay (reference value: 0.5 ug/ml); assay type: functional, organism-based
Candida albicans [15] = assay: Potentiation of micafungin-induced antifungal activity against Candida albicans ATCC 90029 at 64 ug/ml after 24 hrs by broth microdilution assay; assay type: functional, organism-based
Saccharomyces cerevisiae [16] = assay: Potentiation of amphotericin-induced antifungal activity against Saccharomyces cerevisiae S288c assessed as fold reduction in amphotericin MIC at 16 ug/ml after 24 hrs by broth microdilution assay relative to amphotericin MIC alone; assay type: functional
Aspergillus niger [17] = assay: Potentiation of amphotericin-induced antifungal activity against Aspergillus niger ATCC 6275 assessed as amphotericin MIC at 32 ug/ml after 48 hrs by broth microdilution method (reference value: 0.25 ug/ml); assay type: functional; conditions: ATCC 6275, 48 h
HaCaT = assay: Cytotoxicity against human HaCaT cells assessed as reduction in cell viability at 128 ug/ml after 24 hrs by MTT assay; assay type: cell-based
Saccharomyces cerevisiae [18] = assay: Potentiation of amphotericin-induced antifungal activity against Saccharomyces cerevisiae S288c assessed as fold reduction in amphotericin MIC at 32 ug/ml after 24 hrs by broth microdilution assay relative to amphotericin MIC alone; assay type: functional
Rhizopus arrhizus [19] = assay: Potentiation of amphotericin-induced antifungal activity against Rhizopus oryzae NBRC4705 assessed as fold reduction in amphotericin MIC at 2 ug/ml after 24 hrs by broth microdilution assay relative to amphotericin MIC alone; assay type: functional
Saccharomyces cerevisiae [20] = assay: Potentiation of amphotericin-induced antifungal activity against Saccharomyces cerevisiae S288c assessed as fold reduction in amphotericin MIC at 8 ug/ml after 24 hrs by broth microdilution assay relative to amphotericin MIC alone; assay type: functional
Rhizopus arrhizus [21] = assay: Potentiation of amphotericin-induced antifungal activity against Rhizopus oryzae NBRC4705 assessed as amphotericin MIC at 8 ug/ml after 24 hrs by broth microdilution assay (reference value: 1 ug/ml); assay type: functional; conditions: NBRC4705, 24 h
Rhizopus arrhizus [22] = assay: Potentiation of amphotericin-induced antifungal activity against Rhizopus oryzae NBRC4705 assessed as fold reduction in amphotericin MIC at 8 ug/ml after 24 hrs by broth microdilution assay relative to amphotericin MIC alone; assay type: functional
HCT-116 = assay: Cytotoxicity against human HCT116 cells at 128 ug/ml after 24 hrs by MTT assay; assay type: cell-based; conditions: hct-116, 24 h
Saccharomyces cerevisiae [23] = assay: Potentiation of amphotericin-induced antifungal activity against Saccharomyces cerevisiae S288c assessed as fold reduction in amphotericin MIC at 4 ug/ml after 24 hrs by broth microdilution assay relative to amphotericin MIC alone; assay type: functional
HEK293 [24] = assay: Cytotoxicity against human HEK293 cells at 128 ug/ml after 24 hrs by MTT assay; assay type: cell-based; conditions: hek293, 24 h
Saccharomyces cerevisiae [25] = assay: Potentiation of amphotericin-induced antifungal activity against Saccharomyces cerevisiae S288c assessed as amphotericin MIC at 4 ug/ml after 24 hrs by broth microdilution assay (reference value: 0.5 ug/ml); assay type: functional
Rhizopus arrhizus [26] = assay: Potentiation of amphotericin-induced antifungal activity against Rhizopus oryzae NBRC4705 assessed as amphotericin MIC at 4 ug/ml after 24 hrs by broth microdilution assay (reference value: 1 ug/ml); assay type: functional; conditions: NBRC4705, 24 h
Saccharomyces cerevisiae [27] = assay: Potentiation of amphotericin-induced antifungal activity against Saccharomyces cerevisiae S288c assessed as fold reduction in amphotericin MIC at 2 ug/ml after 24 hrs by broth microdilution assay relative to amphotericin MIC alone; assay type: functional
Rhizopus arrhizus [28] = assay: Potentiation of amphotericin-induced antifungal activity against Rhizopus oryzae NBRC4705 assessed as amphotericin MIC at 2 ug/ml after 24 hrs by broth microdilution assay (reference value: 1 ug/ml); assay type: functional; conditions: NBRC4705, 24 h
Rhizopus arrhizus [29] = assay: Potentiation of amphotericin-induced antifungal activity against Rhizopus oryzae NBRC4705 assessed as amphotericin MIC at 16 ug/ml after 24 hrs by broth microdilution assay (reference value: 1 ug/ml); assay type: functional; conditions: NBRC4705, 24 h
Saccharomyces cerevisiae [30] = assay: Potentiation of amphotericin-induced antifungal activity against Saccharomyces cerevisiae S288c assessed as amphotericin MIC at 8 ug/ml after 24 hrs by broth microdilution assay (reference value: 0.5 ug/ml); assay type: functional
Rhizopus arrhizus [31] = assay: Potentiation of amphotericin-induced antifungal activity against Rhizopus oryzae NBRC4705 assessed as amphotericin MIC at 32 ug/ml after 24 hrs by broth microdilution assay (reference value: 1 ug/ml); assay type: functional; conditions: NBRC4705, 24 h
Rhizopus arrhizus [32] = assay: Potentiation of amphotericin-induced antifungal activity against Rhizopus oryzae NBRC4705 assessed as fold reduction in amphotericin MIC at 4 ug/ml after 24 hrs by broth microdilution assay relative to amphotericin MIC alone; assay type: functional
Saccharomyces cerevisiae [33] = assay: Potentiation of amphotericin-induced antifungal activity against Saccharomyces cerevisiae S288c assessed as amphotericin MIC at 32 ug/ml after 24 hrs by broth microdilution assay (reference value: 0.5 ug/ml); assay type: functional
Rhizopus arrhizus [34] = assay: Potentiation of amphotericin-induced antifungal activity against Rhizopus oryzae NBRC4705 assessed as fold reduction in amphotericin MIC at 32 ug/ml after 24 hrs by broth microdilution assay relative to amphotericin MIC alone; assay type: functional

SMILES: Nc1ccccc1C(=O)O [ANTHRANILIC ACID]
Ratio (Candida albicans [1]): 1
MIC (Candida albicans [2]): 0.5 µg/mL

SMILES: C[C@H](NC(=O)c1ccccc1N)C(=O)O
Ratio (Candida albicans [1]): 4
MIC (Candida albicans [2]): 0.13 µg/mL

SMILES: CC(C)[C@@H]1NC(=O)[C@H](C)NC(=O)c2ccccc2NC(=O)[C@H](Cc2ccc(OC(C)(C)C)cc2)N(C)C1=O (cyclo([2Abz]AV[NMeY](tBu)))
MIC (Candida albicans [3]): 0.13 µg/mL
Ratio (Candida albicans [4]): 4
MIC (Candida albicans [5]): 0.063 µg/mL
Ratio (Candida albicans [1]): 16
MIC (Candida albicans [2]): 0.031 µg/mL
Ratio (Candida albicans [6]): 8

SMILES: CC(C)[C@@H]1NC(=O)[C@H](C)NC(=O)c2ccccc2NC(=O)[C@H](Cc2ccc(O)cc2)N(C)C1=O
MIC (Saccharomyces cerevisiae [7]): 0.13 µg/mL
MIC (Saccharomyces cerevisiae [8]): 0.031 µg/mL
Ratio (Aspergillus niger [9]): 1
Activity (Jurkat): Non-Toxic
Activity (Rhizopus arrhizus [10]): Dose-dependent effect
Ratio (Rhizopus arrhizus [11]): 4
Activity (Candida albicans [12]): inactive
IC50 (HEK293 [13]): > 128 µg/mL
Activity (Saccharomyces cerevisiae [14]): Dose-dependent effect
MIC (Candida albicans [3]): 0.13 µg/mL
Activity (Candida albicans [15]): inactive
Ratio (Candida albicans [4]): 4
Ratio (Saccharomyces cerevisiae [16]): 16
MIC (Aspergillus niger [17]): 0.25 µg/mL
Activity (HaCaT): Non-Toxic
MIC (Candida albicans [5]): 0.063 µg/mL
Ratio (Saccharomyces cerevisiae [18]): 16
Ratio (Candida albicans [1]): 16
Ratio (Rhizopus arrhizus [19]): 2
Ratio (Saccharomyces cerevisiae [20]): 8
MIC (Rhizopus arrhizus [21]): 0.25 µg/mL
MIC (Candida albicans [2]): 0.031 µg/mL
Ratio (Rhizopus arrhizus [22]): 4
Activity (HCT-116): Non-Toxic
Ratio (Candida albicans [6]): 8
Ratio (Saccharomyces cerevisiae [23]): 4
Activity (HEK293 [24]): Non-Toxic
MIC (Saccharomyces cerevisiae [25]): 0.13 µg/mL
MIC (Rhizopus arrhizus [26]): 0.5 µg/mL
Ratio (Saccharomyces cerevisiae [27]): 4
MIC (Rhizopus arrhizus [28]): 0.5 µg/mL
MIC (Rhizopus arrhizus [29]): 0.25 µg/mL
MIC (Saccharomyces cerevisiae [30]): 0.063 µg/mL
MIC (Rhizopus arrhizus [31]): 0.25 µg/mL
Ratio (Rhizopus arrhizus [32]): 2
MIC (Saccharomyces cerevisiae [33]): 0.031 µg/mL
Ratio (Rhizopus arrhizus [34]): 4

Now from value to compound, other results behind:

MIC (Candida albicans [2]): 0.13 µg/mL
SMILES: CN[C@@H](Cc1ccc(OC(C)(C)C)cc1)C(=O)Nc1ccccc1C(=O)O
Ratio (Candida albicans [1]): 4

MIC (Candida albicans [3]): 0.13 µg/mL
MIC (Candida albicans [5]): 0.063 µg/mL
MIC (Candida albicans [2]): 0.031 µg/mL
SMILES: CN[C@@H](Cc1ccc(OC(C)(C)C)cc1)C(=O)Nc1ccccc1C(=O)N[C@@H](C)C(=O)N[C@H](C(=O)O)C(C)C (H-[NMeY](tBu)[2Abz]AV-OH)
Ratio (Candida albicans [4]): 4
Ratio (Candida albicans [1]): 16
Ratio (Candida albicans [6]): 8
